Reference: patent US6497872B1, “Neural transplantation using proliferated multipotent neural stem cells and their progeny” (NeuroSpheres Holdings Ltd., priority 1991, dated 2002)

Tests used:
[1] = test system: constitutively proliferating subependymal cells of the lateral ventricles; assay: In vivo proliferation of retrovirus β-gal labelled cells of the lateral ventricle (Example 27); design: species or system mouse
Procedure: A replication incompetent retrovirus containing the β-galactosidase gene [as described in Walsh and Cepko, Science 241:1342, (1988)] was injected into the forebrain lateral ventricles of CD1 adult male mice (25-30 g from Charles River). The injected retrovirus was harvested from the BAG cell line (ATCC CRL-9560) according to the method of Walsh and Cepko (supra). Mice were anesthetized using 65 mg/kg, i.p. sodium pentobarbital. Unilateral stereotactic injections of 0.2-1.0 μl of retrovirus were injected into the lateral ventricle using a 1 μl Hamilton syringe. The coordinates for injection were AP +4.2 mm anterior to lambda, L ±0.7 mm, and DV −2.3 mm below dura, with the mouth bar at −2 mm below the interaural line.
On the same day as, one day, or six days following the retrovirus injection, an infusion cannulae attached to a 0.5 μl/hour ALZET osmotic mini-pumps filled with 3.3-330 μg/ml of EGF were surgically implanted into the lateral ventricles at the identical stereotactic coordinates as stated above. The infusion cannula kits were obtained from ALZA. The infusion cannulae were cut to 2.7 mm below the pedestal. The pumps were secured to the mouse skull by use of acrylic cement and a skull screw contralateral and caudal to the injection site. […]

[2] = test system: EGF-generated neurospheres; assay: Effect of growth factors on neurosphere differentiation, immunocytochemistry (Example 8); assay type: cell-based, mouse; conditions: 20 ng/ml
Procedure: Six to 8 days after the first passage, the neurospheres were removed and centrifuged at 400 r.p.m. The EGF-containing supernatant was removed and the pellet suspended in EGF-free complete medium containing 1% FBS. Neurospheres (approximately 0.5-1.0×10^6 cells/well) were plated on poly-L-ornithine-coated (15 μg/ml) glass coverslips in 24 well Nuclon (1.0 ml/well) culture dishes. After 24 hours in culture, the coverslips were transferred to 12 well (Costar) culture dishes containing complete medium containing 0.5% FBS. The medium was changed every 4-7 days. This differentiation procedure is referred to as the “Rapid Differentiation Paradigm” or RDP.
Six to 8 days after the first passage, the neurospheres were removed and centrifuged at 400 r.p.m. The EGF-containing media was removed and the pellet was suspended in EGF-free complete medium containing 1% FBS. The neurospheres were mechanically dissociated into single cells with a fire-polished Pasteur pipette and centrifuged at 800 r.p.m. for 5 minutes. Between 0.5×10^6 and 1.0×10^6 cells were plated on poly-L-ornithine-coated (15 μg/ml) glass coverslips in 24 well Nuclon (1.0 ml/well) culture dishes. The EGF-free culture medium containing 1% FBS was changed every 4-7 days.
Neurospheres were washed free of EGF by serial transfers through changes of EGF-free medium. A single neurosphere was plated onto poly-L-ornithine-coated (15 μg/ml) glass coverslips in a 24-well plate. The culture medium used was complete medium with or without I % FBS. The medium was changed every 4-7 days.
Neurospheres were washed free of EGF by serial transfers through changes of EGF-free medium. A single neurosphere was mechanically dissociated in a 0.5 ml Eppendorf centrifuge tube and all the cells were plated onto a 35 mm culture dish. Complete medium was used with or without 1% FBS.
The effects of CNTF, FGF-2, BDNF, and retinoic acid on neurosphere differentiation were tested using the differentiation paradigms set forth in Example 7.
The effect of CNTF was assayed in paradigms 1 and 3. For both paradigms, CNTF was added either at the beginning of the experiment at a concentration of 10 ng/ml or daily at a concentration of 1 ng/ml.
Three different antibodies directed against 04, galactocerebroside (GalC) and MBP were used to study the effect of CNTF on the oligodendrocytes of paradigm 1. CNTF had no effect on the number of 04(+) cells, but there was an increase in the number of GalC(+) and MBP(+) cells compared with the control. Thus it appears that CNTF plays a role in the maturation of oligodendrocytes.
The effect of FGF-2 was tested using paradigms 2 and 4. In paradigm 2, 20 ng/ml of FGF-2 was added at the beginning of the experiment and cells were stained 7 days later. FGF-2 increased the number of GFAP(+) cells and the number of NSE(+) cells.
In paradigm 4, 20 ng/ml of FGF-2 was added at the beginning of the experiment and assayed 7-10 days later. […] It induced two different cell types to divide, neuroblasts and bipotential progenitor cells. The neuroblast produced, on average, 6 neurons while the bipotential cell produced approximately 6 neurons and a number of astrocytes.

Striatal cells (E14) = assay: FGF-2 priming of low-density striatal cells before EGF (Example 8); assay type: cell-based, mouse; conditions: primed with 20 ng/ml FGF-2 for 11 DIV, then 20 ng/ml EGF 4-5 DIV; 2500 cell/cm^2
Procedure: Striatal cells (E14, 2500 cell/cm^2) were plated in the absence or presence of 20 ng/ml of FGF-2. After 11 DIV, cultures were washed and medium containing 20 ng/ml of EGF was added. After 4-5 DIV, in cultures that were primed with FGF-2, greater than 70% of the wells examined contained clusters of proliferating cells that developed into colonies with the morphologic and antigenic properties of the EGF-generated cells.

[3] = paradigm 2, stained 7 days later

“bFGF: basic fibroblast growth factor, recombinant human (R & D Systems)” was tested, and the “number of β-gal labelled cells” value ([1]; 33 μg/ml infusion) was “increase”, the “migration of β-gal labelled cells” value ([1]; 6 days infusion) was “not accompanied by any additional migration” and the “number of GFAP(+) cells” value [2, 3] was “increased”. For the same substance, the “number of NSE(+) cells” value [2, 3] was “increased”, the “neurons produced per bipotential cell” value ([2]; paradigm 4) was “approximately 6 neurons” and the “neurons produced per neuroblast, on average” value ([2]; paradigm 4) was 6 neurons. For the same substance, the “proliferation of neural stem cell progeny generated by the EGF-responsive stem cell” value ([2]; paradigm 4, 7-10 days) was “induced the proliferation” and the “wells containing clusters of proliferating cells” value (Striatal cells (E14)) was “greater than 70%”.
